Results on 4 compounds are retold here after US6416987B1, “Mutants of thymidylate synthase and uses thereof” (Sloan Kettering Institute for Cancer Research, priority 1997, dated 2002).

Read-outs that look alike come from different tables or passages of the source.

Data set [1] deals with TS-negative FSthy21 cells transfected with I108F mutant human TS cDNA. The class given is cell-based, mouse. The note with it: AG337; 1108F/clone (2) vs wild-type clone (2).
In data set [2] the test system is TS-negative FSthy21 cells transfected with F225W mutant human TS cDNA. In kind it is cell-based, mouse. As to conditions: AG337; F225W/clone (2) vs wild-type clone (1).
The test system of data set [3] is TS-negative FSthy21 cells transfected with F225L mutant human TS cDNA. The class given is cell-based, mouse. As to conditions: AG337; F225L/clone (3) vs wild-type clone (1).
In data set [4] the test system is TS-negative FSthy21 cells transfected with F225Y mutant human TS cDNA. In kind it is cell-based, mouse. The note with it: AG337; F225Y/clone (1) vs wild-type clone (1).
Data set [5] deals with TS-negative FSthy21 cells transfected with L221A mutant human TS cDNA. In kind it is cell-based, mouse. As to conditions: AG337; L221A/clone (2) vs wild-type clone (1).
In data set [6] the test system is TS-negative FSthy21 cells transfected with L221I mutant human TS cDNA. In kind it is cell-based, mouse. As to conditions: AG337; L221I/clone (1) vs wild-type clone (1).
Data set [7] concerns TS-negative FSthy21 cells transfected with L221S mutant human TS cDNA. In kind it is cell-based, mouse. As to conditions: AG337; L221S/clone (2) vs wild-type clone (1).
For data set [8], the system named is TS-negative FSthy21 cells transfected with K47E mutant human TS cDNA. The class given is cell-based, mouse. The note with it: AG337; K47E/clone (2) vs wild-type clone (1).
Data set [9] concerns TS-negative FSthy21 cells transfected with D49G mutant human TS cDNA. In kind it is cell-based, mouse.
Data set [10] deals with TS-negative FSthy21 cells transfected with G52S mutant human TS cDNA. The class given is cell-based, mouse.
Data set [11] concerns HT1080 cells. Put plainly: AG337 sensitivity of HT1080 (colony formation). In kind it is cell-based, human. As to conditions: drug cytotoxicity assay. The method, then: The optimum concentration of AG337 for selection of resistant clones was determined as follows. The human fibrosarcoma HT1080 cells were seeded into 6-well plates at 100 cells per well and incubated at 37° C. with complete medium. Various concentrations of AG337 were added after 24 hours. Drug-containing medium was changed every 4 days and surviving colonies were counted after 14 days of drug treatment.

Data set [12] relates to in situ TS activity in AG337-resistant HT1080 cell lines. The experiment in a line: Whole cell TS assay (tritium release). In kind it is cell-based, human. The note with it: resistant lines HT1080/1b, 2b, 1c, 2c, 1d, 2d, 6e at minimal AG337 concentration giving no detectable TS activity in HT1080. The method, then: Resistance to TS inhibitors was evaluated using the whole cell TS assay for several AG337-resistant sublines and parental cell line HT1080 as a control. […] For the absence of TS inhibitors, cells convert 2′-[5-^3H]-deoxyuridine to dTMP, releasing ^3H2O into the medium. The rate of dTMP synthesis in the presence or absence of drug was assessed at 0, 15, 30, 40 minutes, by measurement of [3H]2O release by charcoal-TCA (trichloroacetic acid) separation of ^3H2O from nucleosides and nucleotides. Radioactivity was quantitated using a liquid scintillation counter (Beckman LS5).
The effect of AG337 on whole cell in situ TS activity was measured by the tritium release assay in HT1080 cells and several resistant cell lines with putative mutations. The cell lines HT1080/1b, HT1080/2b, HT1080/1c, HT1080/2c, HT1080/1d, HT1080/2d and HT1080/6e were resistant to AG337. […] This method provided a rapid qualitative confirmation of whether or not a cell line is resistant to AG337.

Data set [13] concerns mouse bone marrow cells (N.B.M.). Put plainly: CFU-GM / HPPCFU-C assay, N.B.M. The class given is cell-based.
For data set [14], the system named is mouse bone marrow cells transfected with wild type TS (TS161). The experiment in a line: CFU-GM / HPPCFU-C assay, marrow transfected with plasmid TS161. The class given is cell-based. How it is done:
(§1) DNA into Mouse Bone Marrow Progenitor Cells Twenty micrograms of plasmid DNA (TS161 or TS175) and ten micrograms of DOTAP were diluted to 100 μl with HBS buffer and incubated at room temperature for 10 minutes. The mixture was added to 2×10^6 mouse bone marrow cells suspended in 0.5 ml of IMDM medium (in a 35 mm culture dish). After a 4 hour incubation at 37° C., 2 ml of IMDM with 30% FBS was added to each dish and the incubation was continued for 24 hours. […] Transfected cells prepared as described above were distributed into 10×35 mm dishes (3×10^5 cells in […] IMDM media/dish). […] Drug was added at the indicated concentration to each dish and the cells were cultured at 37° C. (5% CO2) for 10-14 days.

The subject of data set [15] is mouse bone marrow cells transfected with mutant TS (TS175). Put plainly: CFU-GM / HPPCFU-C assay, marrow transfected with plasmid TS175. The class given is cell-based. How it is done: as §1
In data set [16] the target is TS-negative FSthy21 cells transfected with I108A mutant human TS cDNA (Homo sapiens, UniProt P04818, P2L/I108A, cells depend on it). Put plainly: Growth inhibition assay (alamar Blue), I108A transfectants. The note with it: read-out: IC50 values, 7-day exposure.
Protocol: (§3) The mouse TS-negative FSthy21 cells were used as the host for DNA transfections. This cell line, which is a TS-deficient derivative of mouse FM3A cells, was routinely maintained in MEM medium supplemented with 10% fetal bovine serum and 10×10^−5 M thymidine. Transfections were performed by DOTAP, using 10 μg of DNA/culture. Four days after transfection, cells were placed in selective medium, which contain no thymidine and reduced folate. Colonies having the ability to grow in the absence of thymidine were pooled and propagated as a mass culture.
(§4) Logarithmically growing suspension mouse TS-20 negative FSthy21 cells transfected with wild-type or variant human TS cDNA were seeded in 96-well plates at 1,000 cells/well in 180 μl of complete medium. […] Cell viability was measured by the alamar Blue™ assay. This method incorporates an oxidation-reduction (REDOX) indicator that both fluoresces and changes color in response to chemical reduction of growth medium resulting from cell growth. To above 96-well cultured cells, 25 μl of Alamar Blue (Alamar, Sacramento, Calif.) (10% of incubation volume) were added according to the manufacturer's instructions. The culture 96-well plates were then incubated at 37° C. for 4 hours. Viable cells induce chemical reduction of the media which results in a change in REDOX color from blue to red. The intensity of red color (and fluoresces) is proportional to the viable cells. After incubation, fluorescence is was read at 530-560 nm excitation wavelength and 590 nm emission wavelength by an automated plate reader (model EL340; Bio-Tek). Drug concentrations needed to reduce cell growth by 50% (IC50 values) were determined graphically by plotting of cell growth verses inhibitor concentration.
(§5) The effect of three antifolates and FdUrd on the growth characteristics of transfectants that stably express various TS proteins was evaluated by cytotoxicity studies. Cell growth was measured by the alamar blue assay. IC50 values were calculated as the concentration of inhibitor required to inhibit growth by 50% compared to wild-type transfected cells grown under identical conditions.
Data set [17] relates to TS-negative FSthy21 cells transfected with I108A mutant human TS cDNA. The description is as above. The note with it: for Ratio of IC50 values for mutant/wt cells: AG337.
Protocol: as §3, §4, §5
For data set [18] the following is noted: in vivo; cited from earlier work.
The conditions of data set [19]: cited from earlier work.
The test system of data set [20] is human colon tumor cell line with Tyr33 to His33 TS. As to conditions: cited from earlier work.
For data set [21], the target named is TS-negative FSthy21 cells transfected with wild-type human TS cDNA (Homo sapiens, UniProt P04818, P2L, cells depend on it). Put plainly: Growth inhibition assay (alamar Blue), TS-negative cells transfected with wild-type human TS cDNA. In kind it is cell-based, mouse. As to conditions: Tomudex, 7-day exposure, read-out: IC50 values. For orientation: The colour change of resazurin is a common sign of viable cells or microbes.

Data set [22] concerns Normal Bone Marrow cells. The experiment in a line: CFU-GM assay, Normal Bone Marrow (retroviral vector study). In kind it is cell-based, murine. The text has this: (§2) The following tables 15-17 summarize additional proof that these mutants confer resistance to chemotherapeutic agents by increasing the number of drug resistant CFU-GM colonies formed by murine bone marrow cells infected with retroviral vectors containing these mutant TS cDNAs.

Data set [23] relates to murine bone marrow cells infected with Wt TS vector. The experiment in a line: CFU-GM assay, marrow infected with Wt TS retroviral vector. The class given is cell-based.
Data set [24] relates to murine bone marrow cells infected with I108A mut-TS vector. The experiment in a line: CFU-GM assay, marrow infected with I108A mut-TS retroviral vector. In kind it is cell-based.
Source text: as §2

For data set [25], the target named is TS (Homo sapiens, UniProt P04818). As to conditions: enzyme assays; cited from earlier work.
Data set [26] concerns cell growth. As to conditions: cited from earlier work.
Data set [27] deals with FPGS (Homo sapiens, UniProt Q05932). As to conditions: cited from earlier work.
Chain of FPGS (Q05932 43-587, species assumed): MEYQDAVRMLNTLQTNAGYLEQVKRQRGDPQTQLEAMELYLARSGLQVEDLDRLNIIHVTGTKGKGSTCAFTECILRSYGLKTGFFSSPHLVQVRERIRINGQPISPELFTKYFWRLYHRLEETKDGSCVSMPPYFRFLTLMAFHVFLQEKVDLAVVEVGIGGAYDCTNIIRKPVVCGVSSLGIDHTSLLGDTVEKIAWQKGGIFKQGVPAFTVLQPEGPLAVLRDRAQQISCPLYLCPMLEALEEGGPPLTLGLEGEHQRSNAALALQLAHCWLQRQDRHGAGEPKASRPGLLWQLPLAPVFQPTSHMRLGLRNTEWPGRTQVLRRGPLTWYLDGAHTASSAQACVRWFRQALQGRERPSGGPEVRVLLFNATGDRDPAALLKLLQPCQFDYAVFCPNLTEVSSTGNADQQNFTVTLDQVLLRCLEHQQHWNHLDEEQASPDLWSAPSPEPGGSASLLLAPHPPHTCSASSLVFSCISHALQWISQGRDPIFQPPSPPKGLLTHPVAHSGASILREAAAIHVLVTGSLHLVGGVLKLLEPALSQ

Chain of TS-negative FSthy21 cells transfected with wild-type human TS cDNA (P04818 whole entry P2L): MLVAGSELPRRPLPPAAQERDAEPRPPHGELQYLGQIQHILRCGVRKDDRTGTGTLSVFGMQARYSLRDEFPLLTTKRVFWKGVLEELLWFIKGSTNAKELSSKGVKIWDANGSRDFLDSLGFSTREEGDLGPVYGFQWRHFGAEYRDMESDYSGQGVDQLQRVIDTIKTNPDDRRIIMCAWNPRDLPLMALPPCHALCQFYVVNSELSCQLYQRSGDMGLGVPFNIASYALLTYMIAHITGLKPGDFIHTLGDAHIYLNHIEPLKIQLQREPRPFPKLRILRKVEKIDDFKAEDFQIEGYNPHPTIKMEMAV
Chain of TS-negative FSthy21 cells transfected with I108A mutant human TS cDNA (Homo sapiens, UniProt P04818, P2L/I108A, cells depend on it) (P04818 whole entry P2L/I108A): as the sequence (P04818 whole entry P2L) above, with I108A counted along it
Chain of TS (P04818 whole entry): as the sequence (P04818 whole entry P2L) above, with L2P counted along it

As a reminder, the IC50 is the concentration needed to halve the response being measured. Higher therefore signals lower potency. As to `Cc1ccc2nc(N)[nH]c(=O)c2c1Sc1ccncc1` [AG337], the “Ratio of IC50 values for mutant/wt cells” value in data set [1] was 7.0(2); in data set [2], 1.0(1); in [3] it was 1.0(1); in data set [4], 1.5(1); in data set [5], 5.5(1); in data set [6], 5.2(1). For the same compound, the “Ratio of IC50 values for mutant/wt cells” value was 4.5(1) in data set [7]; 5.0(1) in data set [8]; 40(1) in data set [9] (AG337, D49G/clone (1) vs wild-type clone (1)); 12(1) in [10] (AG337, G52S/clone (3) vs wild-type clone (1)); 80(2)^2 in [17] (1108A/clone (1) vs wild-type clone (2)); 76(2) in data set [17] (1108A/clone (2) vs wild-type clone (2)). Also, in data set [17] (1108A/clone (3) vs wild-type clone (2)), the “Ratio of IC50 values for mutant/wt cells” value is listed as 200(2). Also, the “resistance, IC50 values greater than wild-type transfectants” value in [9] (D49G transfectants vs wild-type transfectants) came out at 40 fold; in [10] (G52S transfectants vs wild-type transfectants) it was 12 fold. Also, the IC50 in [11] amounted to 2100 nM. Also, in [12], the “TS activity in whole cells” value was “not totally inhibited”. Moreover, the HPPCFU-C colonies in [13] (AG337 1 × 10^−7 M) was 0; in [14] (AG337 1 × 10^−7 M) it was 0; in data set [15] (AG337 1 × 10^−7 M), 8. In addition, the CFU-GM colonies in data set [13] (AG337 1 × 10^−8 M) is 10; in [13] (AG337 2 × 10^−7 M), 0; in [14] (AG337 1 × 10^−8 M), 20; in data set [14] (AG337 2 × 10^−7 M), 0; in [15] (AG337 1 × 10^−8 M) it was 60; in data set [15] (AG337 2 × 10^−7 M) it was 12. Further, the “CFU-GM colonies, % in parentheses” value is reported as 12% in data set [13] (AG337 1 × 10^−8 M), 19% in data set [14] (AG337 1 × 10^−8 M), 42% in [15] (AG337 1 × 10^−8 M) and 8% in data set [15] (AG337 2 × 10^−7 M). Moreover, the “HPPCFU-C colonies, % in parentheses” value in data set [15] (AG337 1 × 10^−7 M) was found to be 6%. The GI50 in data set [16] (AG337, 1108A/clone (1) [175-1]) is 30500 ± 3700 nM; in data set [16] (AG337, 1108A/clone (2) [175-2]), 29000 ± 2500 nM; in data set [16] (AG337, 1108A/clone (3) [175-3]) it was 76600 ± 2800 nM. The “biggest difference in IC50 values between clones” value in data set [17] (clones 175-2 and 175-3) is given as “less than 3 fold”.
For the compound `C#CCN(Cc1ccc2nc(N)[nH]c(=O)c2c1)c1ccc(C(=O)N[C@@H](CCC(=O)O)C(=O)O)cc1` [CB3717, N^10-propargyl-5,8-dideazafolic acid], in data set [18], the “toxicity in Phase I trials” value is “severe renal and hepatic toxicity”. Moreover, the aqueous solubility entry in [19] is “poor”.
As to `O=c1[nH]c(=O)n([C@H]2C[C@H](O)[C@@H](COP(=O)(O)O)O2)cc1F` [FdUMP, 5-fluoro-2-deoxyuridylate], the “resistance conferred by Tyr33 to His33 substitution” value in data set [20] was 3- to 4 fold.
On to `Cc1nc2ccc(CN(C)c3ccc(C(=O)N[C@@H](CCC(=O)O)C(=O)O)s3)cc2c(=O)[nH]1` [Tomudex, N-(5-[N-(3,4-dihydro-2-methyl-4-oxoquinazolin-6-ylmethyl)-N-methylamino-]-2-thenoyl)-L-glutamic acid], for which the GI50 in data set [21] (wild-type/clone (1) [161-1]) came to 2.37 ± 0.18 nM; in data set [21] (wild-type/clone (2) [161-2]), 1.8 ± 0.47 nM; in [21] (wild-type/clone (3) [161-3]), 3.37 ± 0.34 nM; in data set [16] (Tomudex, 1108A/clone (1) [175-1]) it was 97.9 ± 17.1 nM; in [16] (Tomudex, 1108A/clone (2) [175-2]), 76.8 ± 7.3 nM; in data set [16] (Tomudex, 1108A/clone (3) [175-3]) it was 174 ± 7 nM. Moreover, the CFU-GM colonies in data set [13] (tomudex 1 × 10^−8 M) worked out at 14; in [13] (tomudex 2 × 10^−8 M), 0; in [14] (tomudex 1 × 10^−8 M) it was 28; in data set [14] (tomudex 2 × 10^−8 M), 0; in [15] (tomudex 1 × 10^−8 M), 64; in [15] (tomudex 2 × 10^−8 M), 14. The “CFU-GM colonies, % in parentheses” value in [13] (tomudex 1 × 10^−8 M) is reported as 17%; in data set [14] (tomudex 1 × 10^−8 M) it was 26%; in data set [15] (tomudex 1 × 10^−8 M), 44%; in data set [15] (tomudex 2 × 10^−8 M) it was 10%. For the same compound, the values for the HPPCFU-C colonies in data set [13] (tomudex 1 × 10^−8 M), in data set [14] (tomudex 1 × 10^−8 M) and in data set [15] (tomudex 1 × 10^−8 M) were 0, 0 and 9, respectively. In addition, the “HPPCFU-C colonies, % in parentheses” value in [15] (tomudex 1 × 10^−8 M) was determined as 6%. For the same compound, the CFU-C in [22] (Tomudex 1 × 10^−8 M) stood at 16; in data set [22] (Tomudex 2 × 10^−8 M), 0; in data set [23] (Tomudex 1 × 10^−8 M), 33; in data set [23] (Tomudex 2 × 10^−8 M), 10; in data set [24] (Tomudex 1 × 10^−8 M), 53; in data set [24] (Tomudex 2 × 10^−8 M) it was 25. Also, the “CFU-C, % in parentheses” value in data set [22] (Tomudex 1 × 10^−8 M) was found to be 10%; in [23] (Tomudex 1 × 10^−8 M), 20%; in [23] (Tomudex 2 × 10^−8 M) it was 6%; in [24] (Tomudex 1 × 10^−8 M) it was 36%; in [24] (Tomudex 2 × 10^−8 M), 15%. For the same compound, the results for the HPPCFU-C in data set [22] (Tomudex 1 × 10^−8 M), in data set [23] (Tomudex 1 × 10^−8 M) and in data set [24] (Tomudex 1 × 10^−8 M) were 0, 10 and 26, respectively. The “HPPCFU-C, % in parentheses” value in data set [23] (Tomudex 1 × 10^−8 M) is recorded as 23%; in [24] (Tomudex 1 × 10^−8 M), 53%. Besides, in data set [25], the “less potent as a TS inhibitor than CB3717” value is recorded as 20 times. The “more active in inhibiting cell growth than CB3717” value in [26] is given as 500 fold. Moreover, in data set [27], the “affinity for FPGS higher than that of CB3717” value is recorded as 30 times.
